# In patent US20140274766A1, “METHODS OF USING F-SPONDIN AS A BIOMARKER FOR CARTILAGE DEGENERATIVE CONDITIONS AND BONE DISEASES” (priority 2009, published 2014):
# Assays:
# [1] = system: OA cartilage; test: IL-1 effect on gene expression in OA cartilage explant cultures (QPCR); type: cell-based, human; conditions: IL-1 1 ng/ml, 24-72 h, OA cartilage explants
# Method: FIG. 7: IL-1 inhibited F-spondin and aggrecan expression in OA cartilage. OA cartilage was stimulated with IL-1 (1 ng/ml) for 24-72 h and total RNA was isolated and QPCR was performed.
# Since IL-1 β appears to play a significant role in the pathogenesis of OA, its effects on F-spondin expression by QPCR in cartilage explants cultures was studied. Briefly, knee articular cartilage from patients undergoing knee replacement surgery was obtained and cut in 3-mm discs, and four to six discs (˜100 mg) were placed in organ culture in 2 ml of Ham's F-12 medium+0.1% human albumin (endo toxin fr) for 24-72 h, in the presence and absence of IL-1beta (1 ng/ml). At the end of the experiment the cartilage was frozen immediately in liquid nitrogen for RNA extraction.
# [2] = system: chick chondrocytes; test: Alkaline phosphatase (AP) activity in RA-stimulated chick chondrocyte cultures; type: cell-based; conditions: RA 3 days
# Method: FIG. 16. Inhibition of F-spondin decreases AP activity in RA stimulated cultures. Chick chondrocytes were treated with RA at 100 nm for 5 days with and without F-spondin antibodies and AP activity assessed. Antibodies with specificities to the spondin domain (medium grey) and TSR domain (black) inhibited AP activity compared to ctrl (noAb) (light grey). Note the greater inhibitory effect of the TSR domain antibody. * p=<0.05 versus no ab ctrl.
# FIG. 17. The pro-maturation effect of F-spondin is not inhibited following neutralization of TGF-β activity by coculture with Latency Associated Peptide (LAP). AP activity was determined in chick chondrocyte cultures by ELISA following RA stimulation for 3 days. Cultures were either ctrl (RA only) or RA with either F-Spondin (1 ug/ml) or LAP (10 or 100 ng/ml), or RA with F-Spondin (1 ug/ml) and LAP (10 or 100 ng/ml) in combination.
# FIG. 18. Blocking αvβ3 integrin inhibits the promaturation effect of F-spondin. Chondocyte cultures were transfected as previously and stimulated with RA for 3 days in the presence of IgG control, or αvβ3 blocking antibodies prior to assay for AP activity. Inhibition of αvβ3 led to a ˜50% suppression of F-spondin-induced AP activity but had no effect on baseline AP activity (vector ctrl).
# FIGS. 23A, 23B and 23C. F-spondin regulation of chondrocyte maturation requires the TSR domain. (A) Schematic representation of F-spondin protein domains and plasmid constructs encoding either full length (FS1) or TSR domain truncated (FS6) cDNAs. (B) Relative AP activity of FS or pcDNA3 control transfected cultures after 5 days treatment. (C) Relative AP activity following inhibition of F-spondin protein domains. Upper sternal chondrocytes were stimulated with 0, 10, 35 or 100 nM retinoic acid (RA) for 5 days in culture. […]
# We next determined that the pro-maturation effect of F-spondin is not inhibited following neutralization of TGF-β activity by coculture with Latency Associated Peptide (LAP) (R&D Systems, Cat No 246-LP/CF). […] AP activity was determined in chick chondrocyte cultures by ELISA following RA stimulation for 3 days. […]
# [3] = system: embryonic chick chondrocytes; test: TGF-β treatment of embryonic chick chondrocytes, maturation marker expression (quantitative PCR); type: cell-based; conditions: TGF-β 5 days
# Method: FIGS. 24A and 24B. TGF-β enhances chondrocyte maturation and is required for F-spondin mediated induction of AP. (A) Relative gene expression of chondrocyte maturation markers following TGF-β treatment. Upper sternal chondrocytes were treated with TGF-β at the indicated doses for 5 days and mRNA levels determined by quantitative PCR. Values are expressed relative to untreated controls. (B) Effect of TGF-β depletion on F-spondin-mediated induction of AP. The conditioned media of FS1 or pcDNA3 transfected chondrocytes was harvested and immunodepleted of TGF-β or left untreated, and added to separate cultures in the presence of RA. […] Values represent mean expression levels of triplicate samples relative to untreated supernatants from vector ctrl cultures (=1).
# We have previously reported that F-spondin can regulate the synthetic activity of articular chondrocytes via activation of latent TGF-β (Attur, M et al (2009) Faseb J 23:79-89). Since the TSR domain harbors conserved TGF-β binding motifs, we proposed that F-spondin-mediated enhancement of chondrocyte maturation similarly occurs via TGF-β. […] To determine whether […] is required for F-spondin induction of AP, we transfected chick chondrocytes with FS1 or control vector cDNA and harvested conditioned media supernatants after 48 h. Supernatants were then depleted of TGF-β by coincubation with anti-TGF-b antibody and added to separate cultures of chick chondrocytes in the presence of retinoic acid for 24 h.
substance,measurement,setting,value
IL-1: pro-inflammatory cytokine,expression of F-spondin,[1],significantly inhibited
same,expression of aggrecan,[1],significantly inhibited
"LAP: Latency Associated Peptide (R&D Systems), neutralizes TGF-β activity",effect on AP activity increase seen with F-spondin alone,[2]; LAP 10-100 ng/ml with F-Spondin 1 ug/ml,did not significantly alter
same,chondrocyte maturation,[2]; LAP 10-100 ng/ml,accelerates maturation
TGF-β,expression of AP,[3],dose dependent increases
same,expression of F-spondin,[3],dose dependent increases
same,expression of MMP-13,[3],dose dependent increases
